From ChEMBL document CHEMBL1148121, “New seco-prezizaane-type sesquiterpenes, jiadifenin with neurotrophic activity and 1,2-dehydroneomajucin from Illicium jiadifengpi” (J Nat Prod, 2002)
Activity calls are given as the source filed them. The calls are words filed in the database; no cut-off is given here.

System: Neuron
Assay: Neurotrophic activity in Sprague-Dawley rat neurons assessed as induction of neurite outgrowth at 0.1 to 10 uM after 5 days by microscopy
Format: functional, cell-based

For `C[C@@H]1[C@H](O)C=C2[C@@]13C[C@@H](OC(=O)[C@@H]3O)[C@@]1(O)C(=O)OC[C@@]21C`, which Activity is on record?
Its Activity is “Active”.

Which Activity does the source give for `COC(=O)C1(O)O[C@@H]2C[C@@]13C(=CC(=O)[C@@H]3C)[C@]1(C)COC(=O)[C@]21O` (mixture of isomers) here?
The Activity was “Active”.
